Values after ≈ are worked out from the molar mass of the structure shown. Ends that are not written are not given here.
How the values were obtained:
E. coli ATCC 25922 [1] = assay: Broth microdilution MIC/MBC; type: cell-based; settings: Escherichia coli, ATCC25922, MHB, 5 × 10^5 CFU/mL, 16 h at 37 °C, no visible growth, three independent repetitions, two technical replicates
Method: Escherichia coli ATCC 25922, Escherichia coli ATCC 11229, Pseudomonas aeruginosa ATCC 27853, Aeromonas salmonicida subsp. salmonicida 69 R3, Aeromonas salmonicida subsp. salmonicida 69 R5 [53], Micrococcus luteus LMA-272, and Listeria ivanovii ATCC 19119 were used for antibacterial activity testing. Details on these strains used in this study are included in Table 6. All these strains were cultivated in tryptic soy broth (TSB) (BD, Sparks, NV, USA), except for L. ivanovii, which was grown in brain heart infusion (BHI) broth (BD, Sparks, USA). All bacterial strains were grown at 37 °C, except for the two A. salmonicida strains, which were incubated at 20 °C. Strains were sub-cultured at least twice, before being used for antimicrobial and membrane permeabilization assays.
MICs for bacterial strains were determined using a broth microdilution protocol. Two-fold dilutions of peptide solutions ([…]) were made in Mueller Hinton Broth (MHB) (Oxoid, Basingstoke, UK) in 96-well polypropylene clear round bottom microplates (Corning Inc., Corning, NY, USA). […] Final volumes in the wells were of 200 μL. […] After reading of the MICs, 20 μL of the wells that were showing no visible bacterial growth were inoculated on tryptic soy agar (TSA) (or BHI agar for Listeria ivanovii) plates, which were then incubated at the appropriate temperature for 24 h. […]

Z. rouxii LL12_088 = assay: Antifungal microdilution MIC/MFC; type: cell-based, Zygosaccharomyces rouxii; settings: 99.9% inhibition of yeast growth by CFU counts on PDA
Method: Mucor racemosus LMA-722, Paecilomyces sp. 5332-9a, and Aspergillus niger 3071-13 were used as filamentous fungal strains. Saccharomyces boulardii 27169, Rhodotorula mucilaginosa 27173, and Zygosaccharomyces rouxii LL12_088 were used as yeast strains. Fungal strains were sub-cultured on potato dextrose agar (PDA) (BD, Sparks, USA) plates, at 25 °C, at least two times, before being used for antimicrobial and membrane permeabilization testing.
MICs were also tested using microdilutions in 96-well plates for fungal strains. The protocol used was roughly the same as that described for bacterial strains. RPMI 1640 (Sigma-Aldrich, St. Louis, MO, USA), buffered with MOPS (Fisher Scientific, Fair Lawn, NJ, USA) (0.164 M, pH = 7), was used instead of MHB, according to CLSI guidelines. Potato dextrose broth was used for microplates inoculated with Z. rouxii yeast. For filamentous fungi, conidia were harvested from 7-day cultures and diluted in buffered RPMI 1640 to obtain a suspension containing 5 × 10^4 CFU/mL, as assessed with a COUNTESS II FL automatic cell counter (Thermo Fisher Scientific, Waltham, MA, USA). […] Plates were then incubated for 24 (yeasts) or 48 (filamentous fungi) h at 25 °C. […] Natamycin (Sigma-Aldrich, St. Louis, MO, USA) was used as positive control for all fungal strains. […]

E. coli ATCC 25922 [2] = test system: E. coli ATCC 25922; parameters: method as in PMID 1605597; settings: cited from earlier work
P. aeruginosa ATCC 27853 = test system: P. aeruginosa ATCC 27853; parameters: method as in PMID 1605597; settings: cited from earlier work

O=C(N[C@H](CO)[C@H](O)c1ccc([N+](=O)[O-])cc1)C(Cl)Cl [Chloramphenicol]
MIC (E. coli ATCC 25922 [1]): 4 µg/mL (≈ 12.4 µM)

HGKKVEIVAIND [Analog 4]
MFC, Z. rouxii LL12_088 (Z. rouxii LL12_088): n.f.a. (No fungicidal activity)

magainin-2
MIC, E. coli ATCC 25922 (E. coli ATCC 25922 [2]): 50 µg/mL | MIC, P. aeruginosa ATCC 27853 (P. aeruginosa ATCC 27853): 50 µg/mL
